Where two headings read alike, the source gives them in different places.
Experiments:
[1] = system: HIV-1; conditions: H9 cells; for Day 10 RT HIV-1 (1:5): supernatant diluted 5-fold
In short: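 H9 cells infected with virus at 25 TCID50 for 1 hr at 37° C. with or without tripeptides (~100 μM, or varying concentrations), washed, then cultured with peptides. Supernatant reverse transcriptase activity measured at several days post infection; results as OD, with syncytium formation also observed.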

[2] = system: HIV-1; conditions: for p24 / p24 (OD) / reduction (%): Experiment 5, H9 cells
Method: In Experiment 5, (Table 6) approximately 200,000 H9 cells were infected with HIV-1 at 25 TCID50 to test the inhibitory effect of different concentrations of peptides GPG-NH2, GKG-NH2 and CQG-NH2 and combinations of these peptides. As above, H9 cells were resuspended with or without the different peptides at varying concentrations in 1 ml of RPMI 1640 medium supplemented with 10% (v/v) heat-inactivated fetal bovine serum (FBS), penicillin (100 u/ml), streptomycin (100 u/ml), and Polybrene (2 μg/ml). Thereafter, viruses were added at 25 TCID50 in a volume of 20-30 μl. Cells were incubated with the indicated virus at 37° C. for 1 hr then pelleted at 170×g for 7 minutes. The cells were then washed three times in RPMI medium without peptides at room temperature and pelleted at 170×g for 7 minutes, as above. After the final wash, the cells were resuspended in RPMI culture medium containing the peptides in a 24-well plate (Costar corporation) and kept at 37° C. in 5% CO2 with humidity.
Culture supernatants were collected when the medium was changed at 4, 7, and 14 days post infection. The replication of each virus was monitored by detecting the presence of p24 in the supernatants. HIV p24 antigen was determined using a commercially available HIV p24 antigen detection kit (Abbott). The results are presented as absorbance values (OD) and higher absorbance indicates a higher protein concentration and greater viral infection. In some cases, serial dilutions of the supernatants were made so as to more accurately detect p24 concentration.
The percent reduction tabulated in Table 6 was calculated by dividing amount of p24 antigen detected in the peptide-treated sample by the amount of p24 antigen detected in the control sample, multiplying this dividend by 100 to obtain a percentage, and subtracting the dividend percentage by 100%.

[3] = Experiment 3, 5 μM (of each tripeptide)
[4] = Experiment 3, 20 μM (of each tripeptide)
[5] = Experiment 4, 5 μM (total concentration of tripeptide)
[6] = Experiment 4, 15 μM (total concentration of tripeptide)

With “cystyl-glutaminyl-glycine amide [CQG-NH2]” the “Day 7 RT HIV-1” value ([1]; Experiment 1, 100 μM) was 0.091 OD, the “Day 10 RT HIV-1” value ([1]; Experiment 1, 100 μM) was 0.108 OD and the “Day 7 RT HIV-1” value ([1]; Experiment 2, 100 μM) was 0.143 OD. The “Day 10 RT HIV-1” value ([1]; Experiment 2, 100 μM) was 1.546 OD, the “Day 7 RT HIV-1” value [1, 3] was 1.547 OD and the “Day 10 RT HIV-1” value [1, 3] was 2.028 OD. The “Day 7 RT HIV-1” value [1, 4] was 1.578 OD, the “Day 10 RT HIV-1” value [1, 4] was 1.484 OD and the “Day 7 RT HIV-1” value ([1]; Experiment 3, 100 μM) was 1.520 OD. For the same substance, the “Day 10 RT HIV-1” value ([1]; Experiment 3, 100 μM) was 2.014 OD, the “Day 7 RT HIV-1” value [1, 5] was 2.991 OD and the “Day 10 RT HIV-1 (1:5)” value [1, 5] was 1.459 OD. For the same substance, the “Day 7 RT HIV-1” value [1, 6] was 2.726 OD, the “Day 10 RT HIV-1 (1:5)” value [1, 6] was 1.413 OD and the “Day 7 RT HIV-1” value ([1]; Experiment 4, 45 μM) was 3.124 OD. The “Day 10 RT HIV-1 (1:5)” value ([1]; Experiment 4, 45 μM) was 1.364 OD, the “HIV-1 infection, result in words” value ([1]; summary of Experiments 1-5) was “inhibited and/or prevented HIV-1 infection” and the “reduction of HIV-1 infectivity, p24 antigen in cell supernatants” value ([2]; 300 μM, Table 6) was roughly 100%. The “p24” value ([2]; Day 7 HIV-1, 100 μM) was 5620 pg/mL, the “p24 (OD)” value ([2]; Day 7 HIV-1, 100 μM) was 1.51 × 10^1 OD and the “reduction (%)” value ([2]; Day 7 HIV-1, 100 μM) was 86%. The “p24” value ([2]; Day 7 HIV-1, 300 μM) was 1920 pg/mL, the “p24 (OD)” value ([2]; Day 7 HIV-1, 300 μM) was 0.59 × 10^1 OD and the “reduction (%)” value ([2]; Day 7 HIV-1, 300 μM) was 95%. The “p24” value ([2]; Day 7 HIV-1, 1000 μM) was 320 pg/mL, the “p24 (OD)” value ([2]; Day 7 HIV-1, 1000 μM) was 0.91 OD and the “reduction (%)” value ([2]; Day 7 HIV-1, 1000 μM) was 99%. For the same substance, the “p24” value ([2]; Day 14 HIV-1, 100 μM) was 1.47e+06 pg/mL, the “p24 (OD)” value ([2]; Day 14 HIV-1, 100 μM) was 0.48 × 10^4 OD and the “reduction (%)” value ([2]; Day 14 HIV-1, 100 μM) was 0%. For the same substance, the “p24” value ([2]; Day 14 HIV-1, 300 μM) was 2400 pg/mL, the “p24 (OD)” value ([2]; Day 14 HIV-1, 300 μM) was 0.11 × 10^2 OD and the “reduction (%)” value ([2]; Day 14 HIV-1, 300 μM) was 100%. For the same substance, the “p24” value ([2]; Day 14 HIV-1, 1000 μM) was 280 pg/mL, the “p24 (OD)” value ([2]; Day 14 HIV-1, 1000 μM) was 0.13 × 10^1 OD and the “reduction (%)” value ([2]; Day 14 HIV-1, 1000 μM) was 100%.

Reference: patent US20020091086A1, “Peptides that block viral infectivity and methods of use thereof” (priority 1999, published 2002)
